Source: PubChem BioAssay AID1996
Values after ≈ are worked out from the molar mass of the structure shown.

conditions: buffer; pH 7.4; 200.0 µM

SMILES	solubility kinetic [µg/mL]
C#CCOc1ccc(/C=C2/C(=O)ON=C2C)cc1OCC	27.1 (≈ 95 µM)
CC(=O)Nc1ccc(OCCC[n+]2cccc(C(=O)[O-])c2)cc1	39.6 (≈ 126 µM)
COC(CN(C)C(C(=O)NC1CCCCC1)c1ccccc1)OC (stereo unspecified)	> 50.2
Cc1ccc(/C=C2/SC(=O)NC2=S)o1	31.1 (≈ 138 µM)
C=CCNC(=O)[C@H]1N2C(=O)c3ccccc3C2SC1(C)C (stereo partly specified)	> 45.4
CCOC(=O)c1sc(NC(=O)CCN2C(=O)C3CCCCC3C2=O)cc1C (stereo unspecified)	15 (≈ 38.2 µM)
COc1ccc(C(=O)NCC(=O)N2CCNC(=O)C2)cc1OC	> 48.2
CC(C)(O)C(=O)NNC(=S)NCc1ccco1	> 38.6
N#CCn1c(CN2CCCC2)nc2ccccc2c1=O	38.6 (≈ 144 µM)
O=C(COC(=O)c1cc(F)cc(F)c1)NCCCc1ccccc1	3.7 (≈ 11.1 µM)
COC(=O)c1c(C(C)=O)c(C)n(C)c1C	> 31.4
CC(C)Oc1cccc(C(=O)C2CCCN(S(C)(=O)=O)C2)c1 (stereo unspecified)	> 48.8
CCC(C)[C@H](NC(=O)N1CCC(C)CC1)C(=O)OC (stereo partly specified)	> 40.6
O=C(/C=C/c1ccccc1Cl)NCCCn1ccnc1	38.9 (≈ 134 µM)
COc1ccc(F)cc1S(=O)(=O)N1CCN(c2ccccn2)CC1	6.1 (≈ 17.4 µM)
COc1ccccc1CNc1ncnc2cc(OC)c(OC)cc12	13 (≈ 40 µM)
COc1cc(OC)cc(C(=O)Nc2nnc(-c3cccnc3)o2)c1	> 48.9
Cc1ccc(-c2nc(C#N)c(N3CCC(C)CC3)o2)cc1	< 0.2
Nc1nc(Nc2ccc(Cl)cc2)c(NC=O)c(=O)[nH]1	> 42
C=CCN1C(=O)/C(=C/c2ccsc2)SC1=S	< 0.6
Cc1cc(NC(=O)COC(=O)CNS(=O)(=O)c2c(F)cc(F)cc2Br)no1	> 70.2
O=C(NCC1CC1)Nc1ccc(Cl)cc1	18.9 (≈ 84.1 µM)
Cc1nonc1NC(=O)c1oc2ccc(F)cc2c1C	0.7 (≈ 2.54 µM)
CCc1ccc(OCC(=O)O/N=C(\N)c2ccccn2)cc1	37.9 (≈ 127 µM)

SMILES	solubility kinetic [µg/mL]
CC(C)Cc1nc(Cl)c(C#N)c2c1CCC2	3.8 (≈ 16.2 µM)
O=C(NC(=S)Nc1ncccn1)c1ccc(F)cc1	7.3 (≈ 26.4 µM)
Cc1cc(C)c(C(=O)CSc2nnc(C)c(=O)[nH]2)cc1C	> 45.5
CCN(CC)c1c([N+](=O)[O-])c(=O)n(C)c2ccccc12	24.9 (≈ 90.4 µM)
Cc1cc(C)c(Nc2ncnc(N)n2)c(C)c1	> 34.4
CC1CN=C(NCCc2ccccc2)S1 (stereo unspecified)	> 33
COc1ccc(-c2ncnc(C(F)(F)F)c2-c2csc(C)n2)c(O)c1	53.1 (≈ 145 µM)
COc1nc(C)nc(NC(=O)NS(=O)(=O)c2ccccc2Cl)n1	> 53.7
COc1ccc(C(=O)NCC2CCCO2)cc1OC (stereo unspecified)	35.7 (≈ 135 µM)
CCC(C)NC(=O)CSc1ncnc2sccc12 (stereo unspecified)	> 42.2
C#CC(C)(CC)NC(=O)c1cc2cccc(CC=C)c2oc1=O (stereo unspecified)	0.8 (≈ 2.59 µM)
O=C1CCC(C(=O)N2CCCC2)CN1CCc1cccc(F)c1 (stereo unspecified)	> 47.8
CC1CN(S(=O)(=O)c2cccc(C(=O)OCC(=O)N3CCCCCC3)c2)CC(C)O1 (stereo unspecified)	12.9 (≈ 29.4 µM)
O=S(=O)(c1cccc(C(F)(F)F)c1)N1CCN(c2cnccn2)CC1	25.1 (≈ 67.4 µM)
c1ccc2c(c1)COC(CNC1CCCCC1)OC2	> 39.2
COC(=O)c1cc(S(=O)(=O)N2CCC(C)CC2)cn1C	41.9 (≈ 139 µM)
O=C(c1ccc([N+](=O)[O-])cc1)N1C=CC(C(F)(F)F)=NCC1	> 47
Cc1cc(=O)oc2cc(OCC(=O)NC3CCCC3)ccc12	22.9 (≈ 76 µM)
O=C(COC(=O)c1ccc[n+]([O-])c1)Nc1ccc([N+](=O)[O-])cc1C(F)(F)F	> 57.8
COc1ccc(NC(=O)CC2SC(N3CCCC3)=NC2=O)cc1Cl (stereo unspecified)	6.8 (≈ 18.5 µM)
COc1ccc2nc(Nc3nc(-c4ccncc4)cs3)sc2c1	0.8 (≈ 2.35 µM)
CC(C)(C)C(O)CN1CCCC1.Cl (stereo unspecified)	> 31.2
CCOc1ccc2cc(S(=O)(=O)N3CCCCC3)ccc2c1	< 0.7
Cl.N[C@@H]1C[C@H]1c1ccccc1	> 25.4

SMILES	solubility kinetic [µg/mL]
O=[N+]([O-])c1cc2c(cc1C=Nc1ccccc1)OCO2	38.1 (≈ 141 µM)
CC1CN(S(=O)(=O)c2cccc(C(=O)NCCc3ccc(S(N)(=O)=O)cc3)c2)CC(C)O1 (stereo unspecified)	> 72.2
CCc1ccc(OCc2cnc(Cl)s2)cc1	< 0.5
O=S(=O)(Nc1ccc(Br)cn1)c1cccs1	42.4 (≈ 133 µM)
Cc1nc2ccc([N+](=O)[O-])cc2c(=O)n1Cc1cccc(F)c1	9.1 (≈ 29 µM)
NS(=O)(=O)c1ccc(NC(=O)C2C3C=CC(C3)C2C(=O)O)cc1 (stereo unspecified)	> 50.5
Cc1ccc(NS(=O)(=O)c2c(F)cc(F)c(Cl)c2F)cc1S(=O)(=O)N1CCOCC1	> 72.7
OCC[NH+](CCO)CC(O)COc1ccc(Br)cc1.[Cl-] (stereo unspecified)	> 55.6
COc1cc(OC)c(N(C)S(=O)(=O)c2cccc(C(=O)OCC(=O)N3CCOCC3)c2)cc1Cl	56.6 (≈ 110 µM)
C/C(=N\O)C(C)(C)Nc1ccc(Br)cc1	> 40.7
CCN1CCC(NCCc2ccc(F)cc2)CC1	24.9 (≈ 99.5 µM)
O=S(=O)(c1c(Cl)sc(Cl)c1Br)N1CCCC1	4.4 (≈ 12.1 µM)
CCN(CC(=O)NCc1cccs1)C(=O)c1ccc(S(=O)(=O)N(C)c2ccccc2)cc1	> 70.7
O=C1NCCN1CCNS(=O)(=O)c1ccccc1[N+](=O)[O-]	> 47.1
O=C(CCC1CCN(Cc2ccccc2O)CC1)NC1CC1	42.6 (≈ 141 µM)
O=[N+]([O-])c1ccccc1COc1ccc(Cl)c2cccnc12	< 0.3
CCn1c(O)c(C=Nc2ccccc2)sc1=O	0.5 (≈ 2.01 µM)
[Br-].c1ccc(Cc2cc[n+](Cc3ccccn3)cc2)cc1	> 51.2
Cc1cccc(C(=O)OCc2cncs2)c1	28.9 (≈ 124 µM)
C=CC(=O)NC1CC2CCC1(C)C2(C)C (stereo unspecified)	> 31.1
O=C(OCC(=O)N1CCCC1)c1ccc(Cl)nc1	> 40.3
CCCn1c(SCC(=O)NC2CCCC2)nnc1C(C)C	> 46.6

Other lines, results leading:

solubility kinetic [µg/mL]	SMILES
> 38.9	CCC(NC(=O)Cc1cccs1)c1ccccc1 (stereo unspecified)
> 46.4	CCOP(=O)(OCC)C(Nc1ccccc1)c1ccco1 (stereo unspecified)
< 0.6	O=C(Nc1ccc(C(=O)c2ccccc2)cc1)c1ccccc1
39.8 (≈ 142 µM)	CCC(=O)Nc1cccc(-c2cn3cccc(C)c3n2)c1
< 0.7	O=C(Nc1cccc(C(F)(F)F)c1)c1scc2c1OCCO2
> 47.9	O=C(CN1C(=O)COc2ccccc21)NCCN1CCOCC1
40.2 (≈ 112 µM)	CC(=O)N(C)c1ccc(NC(=O)C(c2ccccc2)c2ccccc2)cc1
> 53.2	CSCC(=O)NCC1(N(C)Cc2ccccc2)Cc2ccccc2C1
23.2 (≈ 47 µM)	CSc1cccc(N2CC(C(=O)N3CCN(S(=O)(=O)c4ccccc4Cl)CC3)CC2=O)c1 (stereo unspecified)
> 47	COc1ccc(CCC(=O)NC(C)c2ccccc2)cc1OC (stereo unspecified)
< 0.3	COc1ccc(C)cc1NC(=O)NC1CCCc2ccccc21 (stereo unspecified)
2.2 (≈ 6.21 µM)	COC(=O)c1ccc(OC)c(Cn2c(=O)n(C)c(=O)c3ccccc32)c1
> 51.2	COC(=O)c1cc(CNC(=O)CC(C)c2ccccc2)ccc1OC (stereo unspecified)
> 44.8	CCOc1ccc(NC(=O)NC2CCS(=O)(=O)C2)cc1 (stereo unspecified)
1.1 (≈ 4.11 µM)	CC(C)NC(=O)C1c2ccccc2Oc2ccccc21
> 44.9	CC(C)(C)n1cnc2cc(NC(=O)c3cccs3)ccc21
19.7 (≈ 57.6 µM)	O=C(CCNC(=O)c1ccco1)Nc1ccc(OC(F)(F)F)cc1
< 0.4	O=c1c2cc(Br)ccc2[nH]c(=S)n1Cc1ccccc1
< 0.2	COc1ccc(N2CCN(c3cc(C)c4ccccc4n3)CC2)cc1
17.6 (≈ 73.1 µM)	Clc1nc(-c2ccccc2)c2ccccc2n1
> 50.6	Cc1noc(C)c1S(=O)(=O)Nc1ccccc1N1CCOCC1
38.7 (≈ 129 µM)	O=C(Nc1ccc(Cl)c(C(F)(F)F)c1)c1ccncc1
> 45.7	O=C(CCNS(=O)(=O)c1ccccc1)Nc1ccccc1
13.2 (≈ 47.1 µM)	Cc1cccc(NC(=O)N2CCCc3ccccc32)c1C
8.1 (≈ 19.7 µM)	COc1ccc(NC(=O)c2ccc(NC(=O)CN3CCC(C(N)=O)CC3)cc2)cc1
36.8 (≈ 125 µM)	COc1ccc(C=O)cc1CN1C(=O)c2ccccc2C1=O

solubility kinetic [µg/mL]	SMILES
19.5 (≈ 68.6 µM)	NC(=O)c1ccccc1OCc1nc2ccccc2s1
33 (≈ 123 µM)	CSc1cccc(N=C2C(=O)Nc3ccccc32)c1
> 50.8	Cc1ccccc1C(=O)N1CCC(C(=O)OCc2ccccn2)CC1
< 0.1	N/C(=N\c1nc2ccccc2o1)NC(=O)c1ccc([N+](=O)[O-])cc1
> 47.9	CC(C)(C)NC(=O)C(OC(=O)c1ccco1)c1ccccc1F (stereo unspecified)
> 34.8	COc1ccc(NC(=O)c2cc(C)no2)cc1
> 39.2	COc1cccc(C(=O)NCc2ccco2)c1OC
> 38.3	CCc1ccc(NC(=O)NCc2ccccn2)cc1
> 47.9	CCn1c(SCC(=O)Nc2ccc(C)cc2)nc(O)cc1=O
44.7 (≈ 146 µM)	CC(O)c1cccc(NC(=O)Cc2cccc3ccccc23)c1 (stereo unspecified)
> 47	CN(c1ccc(O)cc1)S(=O)(=O)c1ccc2ccccc2c1
> 42.5	Cn1c(=O)c(Sc2ccccc2)c(O)c2ccccc21
> 40.2	O=C(Nc1cccc(Br)c1)C1CCCC1
5.3 (≈ 19.8 µM)	CC(=O)Nc1nc(-c2cccc3ccccc23)cs1
< 0.7	C=CCOc1ccc(C(=O)n2cc(C(=O)OC)c3ccccc32)cc1
> 34.7	Cc1ccccc1NC(=O)Cc1cccs1
> 49.6	Cn1c(Cc2ccccc2)nnc1SCC(=O)NC1CCCC1
> 32.3	CC1CCc2cccc3c(O)cc(=O)n1c23 (stereo unspecified)
11.5 (≈ 32.5 µM)	O=C(CSc1nccc(=O)[nH]1)Nc1ccc(Oc2ccccc2)cc1
37.5 (≈ 124 µM)	CC1CCCCC1NC(=O)CSc1nc2ccccc2[nH]1 (stereo unspecified)
27.2 (≈ 98.4 µM)	CC1(C)CC(/C=C/c2ccccc2)=Nc2ccccc2N1
0.8 (≈ 2.44 µM)	CCNC(=S)/N=C(/Nc1ccccc1)Nc1nc(C)cc(C)n1
> 65	Cc1cc(NS(=O)(=O)c2ccc(NC(=O)c3ccc([N+](=O)[O-])s3)cc2)nc(C)n1
4.6 (≈ 12.4 µM)	O=C(/C=C/c1cccc(Br)c1)N1CCN(c2ccccn2)CC1
6.7 (≈ 19.7 µM)	COc1cccc(/C=C/C(=O)OCC(=O)NCCc2ccccc2)c1
